Here are results for one substance from patent publication US20210239702A1, “METHODS FOR PREDICTING RESPONSIVENESS OF LUNG CANCER PATIENTS TO HER2-TARGETING THERAPIES” (MEMORIAL SLOAN KETTERING CANCER CENTER, priority 2018, published 2021).

The test system of experiment [1] is HER2 mutant lung cancers. From the text: (§1) Patients with stage 4 or recurrent HER2 mutant lung cancers were enrolled in the cohort, as illustrated in the basket trial scheme in FIG. 1. Other cohorts of this basket trial included HER2 amplified lung, bladder and other solid tumors, as illustrated by FIG. 1. HER2 mutations were identified through next generation sequencing (NGS) including exon 20 insYVMA, insGSP, insTGT, single base pair substitutions L755A, L755S, V777L, V659E, S310F or other likely activating mutations. Other inclusion criteria included age (≥18 years old), Karnofsky performance status (≥70%), measurable disease by Response Evaluation Criteria in Solid Tumors (RECIST) v1.1, and adequate left ventricular, bone marrow, and hepatic function.
Physical examination and safety assessments were performed every 3 weeks. Tumor assessments using contrast enhanced computed tomography of the chest, abdomen, and pelvis were performed at baseline, week 6, week 12, and every 12 weeks thereafter until disease progression was observed. Brain imaging was not routinely performed unless clinically indicated. Left ventricular ejection fraction measurements by echocardiography or multi-gated acquisition scan were performed at baseline then every 3 months. […] Secondary objectives included assessment of progression-free survival (PFS) and toxicity according to the National Cancer Institute Common Terminology Criteria for Adverse Events version 4.1 (NCI CTCAE v4.1). The molecular associations between HER2 mutations, HER2 amplification and HER2 protein expression were examined using different molecular diagnostic assays whenever archival tissue was available. NGS assessed for HER2 mutation and amplification, fluorescence in situ hybridization (FISH) assessed for HER2 amplification, and HER2 protein overexpression was assessed by immunohistochemistry (IHC) and quantitative mass spectrometry. FISH was performed using FDA approved probe sets (PathVysion, Abbott Molecular, Chicago, Ill. and HER2 IQFISH pharmDx, Agilent, Santa Clara, Calif.) and positive HER2 amplification was defined as HER2/CEP17 ratio ≥2.0. HER2 protein by IHC was assessed using the 4B5 Ventana antibody (Ventana Medical Systems, Oro Valley Ariz.). Quantitative HER2 protein by selected reaction monitoring mass spectrometry on fixed-formalin paraffin-embedded tissue was performed using methods previously validated in breast cancers, with ≥740 amol/ug as the cutoff for high HER2 expression (see Nuciforo P., et al., Mol. Oncol., 10:138-147 (2016)).
Target accrual was a minimum of 7 patients (stage 1) and maximum of 18 patients (stage 1 and 2) in each cohort. The primary endpoint was best confirmed overall response rate (ORR) per RECIST v1.1. The Simon's optimal two-stage design was employed with a multiple testing adjusted type I error rate for each cohort. For a targeted agent where higher response rates were expected, a true ORR of ≤10% was considered unacceptable (null hypothesis), whereas a true ORR of ≥40% merited further study (alternative hypothesis). In the first stage, 7 patients were accrued; if there were no responses observed at interim analysis of the 7 patients in a particular cohort, the cohort was closed. Otherwise, 11 additional patients were accrued for a total of 18 patients. […] The overall family-wise error rate at the study level was <10%. The exact 95% CI for ORR was calculated using the Clopper-Pearson method. PFS time was estimated by the Kaplan-Meier method. Follow-up time was calculated from the start of treatment to the most recent patient follow-up assessment.

Experiment [2] deals with HER2-amplified salivary gland cancers. As to conditions: FLIM-FRET positive in 3/3.
Source text: as §1

In the case of ado-trastuzumab emtansine, in experiment [1] (2 patients, first response assessment), the “outcome of patients with active untreated brain metastases at enrollment” value was “both patients had progression of disease systemically and in the central nervous system”. For the same substance, the “patients with progression of disease as best response” value in experiment [1] (3 of 18 patients) is listed as 17%. Also, the “responders among patients pretreated with prior systemic therapy” value in experiment [1] (6 of 15 pretreated patients) is on record as 40%. Moreover, the “median PFS for the responders” value in experiment [1] (95% CI 4 months to not reached) is 6 months. In addition, the “median PFS for all patients” value in experiment [1] (N=18, 95% CI 3 to 9 months) was 5 months. In experiment [1] (RECIST v1.1, 3.6 mg/kg IV every 21 days, 18 patients, 95% CI 22-69%), the “overall response rate (ORR, all partial and confirmed)” value is listed as 44%. Also, the “patients who achieved stable disease” value in experiment [1] (in vivo) amounted to 39%. In experiment [1] (out of 18 patients with ERBB2-mutant lung cancers), the “patients with confirmed radiologic partial response” value came out at 8. Besides, the “longest PFS observed / durable disease control” value in experiment [1] (patient with stable disease as best response, -27% tumor shrinkage) is reported as not below 11 months. Further, the “median time to response from start of treatment” value in experiment [1] (range 1 to 4 months) was found to be 2 months. Moreover, the “median duration of response” value in experiment [1] (range 2 to 9 months) worked out at 4 months. In addition, in experiment [2], the “response among FLIM-FRET positive patients” value is “all 3 patients responded”.
